Data as given in patent publication US10093675B2, “6,8-disubstituted-9-(heterocyclyl)purines, compositions containing these derivatives and their use in cosmetic and medicinal applications” (USTAV EXPERIMENTALNI BOTANIKY AV CR, V.V.I., priority 2014, dated 2018).

Assays:
[1] = test system: excised wheat leaf tips (Triticum aestivum cv. Hereward); assay: Senescence inhibition on winter wheat leaf segments (retention of chlorophyll); type: in vivo; conditions: 10^−4 mol/L; 96 hours in the dark; activity of kinetin set at 100%
Method: (§1) Seeds of winter wheat, Triticum aestivum cv. Hereward, were washed under running water for 24 hours and then sown on vermiculite soaked with Knop's solution. They were placed in the grown chamber at 25° C. with a 16/8 hours light period at […]. After 7 days, the first leaf was fully developed and the second leaf had started to grow. A tip section of the first leaf, approximately 35 mm long, was removed from 5 seedlings and trimmed slightly to a combined weight of 100 mg. The basal ends of the five leaf tips were placed in the wells of a microtiter polystyrene plate containing […] of a cytokinin solution each. The entire plate was inserted into a plastic box lined with paper tissues soaked in distilled water to prevent leaf sections from drying out. After 96 hours incubation in the dark at 25° C., the leaves were removed and chlorophyll extracted by heating at 80 C for 10 min in 5 ml of 80% ethanol (v/v). The sample volume was then restored to 5 ml by the addition of 80% ethanol (v/v). The absorbance of the extract was recorded at 665 nm. In addition, chlorophyll extracts from fresh leaves and leaf tips incubated in deionized water were measured. From the obtained data, the concentration with highest activity was selected for each compound tested. Relative activity of the compound at this concentration was calculated (see Table 6 below). The activity obtained for 10^−4 M kinetin (Kin) was set as 100%. The values shown are means of five replicates and the whole experiment was repeated twice.
The compounds to be tested were dissolved in dimethylsulfoxide (DMSO) and the solution brought up to 10^−3 M with distilled water. […] As summarized in Table 6 below, the presence of C-8 substitutent was beneficial and led to increase of antisenescent properties.

[2] = test system: detached leaves of Triticum aestivum cv. Hereward; assay: Membrane lipid peroxidation (MDA, TBA method) in detached wheat leaves during dark senescence; type: in vivo; conditions: four days in the dark, Control 18.9 (±2.2)
Method: A typical symptom associated with senescence as a direct consequence of increased reactive oxygen species is lipid peroxidation. Therefore the levels of MDA, a decomposition product of lipid peroxidation, were measured in detached wheat leaves that were exposed to the prepared novel derivatives and kinetin for four days in the dark as described in Example 8. MDA levels were measured using a thiobarbituric acid (TBA) method. In detail, 100 mg of fresh plant material was homogenized by high speed shaking in a ball mill (MM301, Retsch, Germany) with 1 mL of 80% methanol. The crude extract was centrifuged at 10,000×g for 5 min, and 100 μL aliquot of supernatant was vortexed with 100 μL of 0.5% (w/v) TBA containing 0.1% (w/v) trichloroacetic acid, and the resulting solution was then incubated for 30 min at 95° C. The samples were quickly cooled on ice and recentrifuged for 5 min at 1000×g. The absorbance of supernatant was measured at 532 nm with background subtraction at 600 nm and the amount of MDA-TBA complex was calculated from the coefficient of absorbance 155 mM^−1cm^−1.
as §1

[3] = test system: Salmonella typhimurium histidien auxotrophs TA98 and TA100; assay: Ames test; type: cell-based; conditions: 2.5 to 5000 μg/plate; presence and absence of Aroclor-induced rat liver S9
Method: A number of tests related to the safety of have been carried out using conventionally accepted protocols and procedures. The results of these studies are summarized herein. Tests were carried out using DMSO as solvent and dose levels of compound 21, 24, 26, 27, 39, 41, 45, 48, 50, 52, 53, 54, 55, 56, 63, 64, 66, 67, 68, 69, 70, 71, 72, 74, 76, 124, 125, 126, 127, 128, 129, 130, 145, 146, 147, 149, 150, 151, 208, 216, 218 a 243 at 2.5, 5.0, 15, 50, 500, 1500, and 5000 μg/plate based upon standard protocol and procedures (Ames et al., Mutation Research, 31, 347-364 (1975); Maron et al., Mutation Research, 113, 173-215 (1983)).

[4] = test system: human diploid fibroblasts (HDF cells; HDF25, HDF45, HDF80); assay: Inhibition of human cell aging: senescent cells by beta-galactosidase staining; type: cell-based; conditions: for SENESCENT CELLS (%) HDF25: human diploid fibroblasts passage 25, beta-galactosidase staining; for SENESCENT CELLS (%) HDF45: human diploid fibroblasts passage 45, beta-galactosidase staining; for SENESCENT CELLS (%) HDF80: human diploid fibroblasts passage 80, beta-galactosidase staining
Method: In this example, human diploid fibroblasts (HDF cells of various passage levels: passage 25—designated HDF25; passage 45—designated HDF45; passage 80—designated HDF80) were stained for beta-galactosidase activity. The medium used for the cell cultivation was removed the cells were washed twice in […], and fixed in 2-3 ml of fixing solution comprised of a 2% formaldehyde and 0.2% glutaraldehyde in PBS. The cells were incubated at room temperature for 5 minutes, and then washed twice with PBS. The cells were subsequently incubated at 37° C. […] In this experiment, senescent cells, but no other cells were stained blue due to the action of beta-galactosidase on the substrate.

[5] = test system: cytokinin-dependent tobacco callus Nicotiana tabacum L. cv. Wisconsin 38; assay: Plant cell division: growth of cytokinin-dependent tobacco callus; type: cell-based; conditions: for Activity (%); (s.d.): relative activity at concentration with highest activity, 10^−6 M kinetin set at 100%; for Concentration with highest activity (mol/l): tobacco callus fresh weight increase after four weeks, tested 10^−8 M to 10^−4 M
Method: Cytokinin-dependent tobacco callus Nicotiana tabacum L. cv. Wisconsin 38 was maintained at 25° C. in darkness on modified MS medium, containing 4 μmol/l nicotinic acid, 2.4 μmol/l pyridoxine hydrochloride, 1.2 μmol/l thiamine, 26.6 μmol/l glycine, 1.37 μmol/l glutamine, 1.8 μmol/l myo-inositol, 30 g/l of sucrose, 8 g/l of agar, 5.37 μmol/l NAA and 0.5 μmol/l BAP. Subcultivation was carried out every three weeks. Fourteen days before the bioassay, the callus tissue was transferred to the media without BAP. Biological activity was determined from the increase in fresh callus weight after four weeks of cultivation. Five replicates were prepared for each cytokinin concentration and the entire test was repeated twice. From the obtained data, the concentration with highest activity was selected for each compound tested. Relative activity at this concentration was calculated (see Table 17 below). The activity obtained for 10^−6 M kinetin (Kin) was set as 100%.
The cytokinins to be tested were dissolved in dimethylsulfoxide (DMSO) and the solution brought up to 10^−3M with distilled water.

Compound	Activity (%) (s.d.), retention of chlorophyll [1]	MDA (nmol/g FW) [2]	mutagenic response [3]	SENESCENT CELLS (%) HDF25 [4]	SENESCENT CELLS (%) HDF45 [4]	SENESCENT CELLS (%) HDF80 [4]	Activity (%); (s.d.) [5]	Concentration with highest activity (mol/l) [5]
Clc1nc2c(NCc3ccco3)ncnc2n1C1CCCCO1 (centres unmarked) [Compound 1, 8-Chloro-6-furfurylamino-9-(tetrahydropyran-2-yl)-9H-purine]	105 (±3) %	12.8 (±1.0) nmol/g FW						
Oc1ccc(CNc2ncnc3c2nc(Cl)n3C2CCCCO2)cc1O (centres unmarked) [Compound 10]	132 (±7) %	12.8 (±1.1) nmol/g FW						
Oc1ccc(CNc2ncnc3c2nc(Cl)n3C2CCCCO2)cc1 (centres unmarked) [Compound 13]		11.9 (±1.3) nmol/g FW						
COc1cc(CNc2ncnc3c2nc(Cl)n3C2CCCCO2)cc(OC)c1O (centres unmarked) [Compound 14]		12.2 (±1.4) nmol/g FW						
Oc1ccc(Nc2ncnc3c2nc(Cl)n3C2CCCCO2)cc1 (centres unmarked) [Compound 16]		11.6 (±1.0) nmol/g FW						
C/C(=C/CNc1ncnc2c1nc(Br)n2C1CCCCO1)CO (centres unmarked) [Compound 25]		11.7 (±1.1) nmol/g FW						
Oc1ccc(Nc2ncnc3c2nc(Br)n3C2CCCCO2)cc1 (centres unmarked) [Compound 44]		10.7 (±0.8) nmol/g FW						
COc1ccc(CNc2ncnc3c2nc(I)n3C2CCCCO2)cc1OC (centres unmarked) [Compound 56]	141 (±8) %		no positive mutagenic responses	3%	5%	21%		
Clc1nc2c(NCc3ccco3)ncnc2n1C1CCCO1 (centres unmarked) [Compound 63]	110 (±2) %		no positive mutagenic responses	2%	4%	19%		
Oc1ccc(CNc2ncnc3c2nc(Cl)n3C2CCCO2)cc1O (centres unmarked) [Compound 66]	132 (±5) %		no positive mutagenic responses	2%	4%	16%		
Fc1ccc(CNc2ncnc3c2nc(Cl)n3C2CCCO2)cc1F (centres unmarked) [Compound 67]	128 (±6) %		no positive mutagenic responses	4%	6%	18%		
Oc1cccc(CNc2ncnc3c2nc(Cl)n3C2CCCO2)c1 (centres unmarked) [Compound 70]	126 (±1) %		no positive mutagenic responses	2%	5%	18%	110 (±1) %	10^−6-10^−4 mol/l
Fc1cccc(CNc2ncnc3c2nc(Cl)n3C2CCCO2)c1 (centres unmarked) [Compound 71]	119 (±3) %		no positive mutagenic responses	3%	6%	19%	116 (±2) %	10^−6-10^−4 mol/l
Brc1nc2c(NCc3ccco3)ncnc2n1C1CCCO1 (centres unmarked) [Compound 72]	106 (±2) %		no positive mutagenic responses	3%	4%	17%		
C/C(=C/CNc1ncnc2c1nc(Br)n2C1CCCO1)CO (centres unmarked) [Compound 74]	127 (±5) %		no positive mutagenic responses	3%	5%	21%	122 (±4) %	10^−6-10^−4 mol/l
Oc1cccc(CNc2ncnc3c2nc(I)n3C2CCCO2)c1 (centres unmarked) [Compound 76]	112 (±3) %		no positive mutagenic responses	3%	4%	15%	114 (±3) %	10^−6-10^−4 mol/l
C/C(=C/CNc1ncnc2c1nc(N(C)C)n2C1CCCO1)CO (centres unmarked) [Compound 189]		10.8 (±0.9) nmol/g FW						
Nc1nc2c(NCc3ccco3)ncnc2n1C1CCCO1 (centres unmarked) [Compound 197]		9.2 (±0.6) nmol/g FW						
Nc1nc2c(NCc3ccc(O)cc3)ncnc2n1C1CCCO1 (centres unmarked) [Compound 201]		8.7 (±0.7) nmol/g FW						
Oc1nc2c(NCc3ccco3)ncnc2n1C1CCCO1 (centres unmarked) [Compound 221]		10.2 (±0.5) nmol/g FW						
Oc1ccc(CNc2ncnc3c2nc(O)n3C2CCCO2)cc1 (centres unmarked) [Compound 224]		9.3 (±0.8) nmol/g FW						
NCCNc1nc2c(NCc3ccco3)ncnc2n1C1CCCO1 (centres unmarked) [Compound 233]		9.8 (±0.7) nmol/g FW						
NCCCNc1nc2c(NCc3ccco3)ncnc2n1C1CCCO1 (centres unmarked) [Compound 238]		9.4 (±0.7) nmol/g FW						
NCCCOc1nc2c(NCc3ccco3)ncnc2n1C1CCCO1 (centres unmarked) [Compound 241]		9.6 (±0.8) nmol/g FW						
CC(C)=CCNc1ncnc2c1nc(NCCO)n2C1CCCO1 (centres unmarked) [Compound 245]		9.5 (±0.6) nmol/g FW						
